# In patent US20030207877A1, “Pyridoquinoxaline antivirals” (priority 2001, published 2003):
# Columns and labels:
# HCMV polymerase = target: T1, HCMV polymerase (Human cytomegalovirus, UniProt P08546); test: HCMV polymerase assay (scintillation proximity assay), original and modified version; format: biochemical; conditions: SPA; several values per example = repeat determinations, assay version not given; read-out: CMV Polymerase IC50
# T1 construct: made in house; host or cells: SF-9 insect cells infected with recombinant baculovirus
# Method: The HCMV polymerase assay is performed using a scintillation proximity assay (SPA) as described in several references, such as N.D. Cook, et al., Pharmaceutical Manufacturing International, pages 49-53 (1992); K. Takeuchi, Laboratory Practice, September issue (1992); U.S. Pat. No. 4,568,649 (1986); which are incorporated by reference herein. Reactions are performed in 96-well plates. The assay is conducted in 100 μl volume with 5.4 mM HEPES (pH 7.5), 11.7 MM KCl, 4.5 mM MgCl2, 0.36 mg/ml BSA, and 90 nM ^3H-dTTP. Assays are run with and without CHAPS, (3-[(3-Cholamidopropyl)-dimethylammoniol-1-propane-sulfonate) at a final concentration of 2 mM. HCMV polymerase is diluted in enzyme dilution buffer containing 50% glycerol, 250 mM NaCl, 10 mM HEPES (pH 7.5), 100 μg/ml BSA, and 0.01% sodium azide. The HCMV polymerase, which is expressed in recombinant baculovirus-infected SF-9 cells and purified according to literature procedures, is added at 10% (or 10 μl) of the final reaction volume, i.e., 100 μl. Compounds are diluted in 50% DMSO and 10 μl are added to each well. Control wells contain an equivalent concentration of DMSO. Unless noted otherwise, reactions are initiated via the addition of 6 nM biotinylated poly(dA)-oligo(dT) template/primer to reaction mixtures containing the enzyme, substrate, and compounds of interest. Plates are incubated in a 25° C. or 37° C. H2O bath and terminated via the addition of 40 μl/reaction of 0.5 M EDTA (pH 8) per well. Reactions are terminated within the time-frame during which substrate incorporation is linear and varied depending upon the enzyme and conditions used, i.e., 30 min. for HCMV polymerase. Ten (10) μl of streptavidin-SPA beads (20 mg/ml in PBS/10% glycerol) are added following termination of the reaction. Plates are incubated 10 min. at 37° C., then equilibrated to room temperature, and counted on a Packard Topcount. Linear regressions are performed and IC50's are calculated using computer software.
# A modified version of the above HCMV polymerase assay is performed as described above, but with the following changes: Compounds are diluted in 100% DMSO until final dilution into assay buffer. In the previous assay, compounds are diluted in 50% DMSO. 4.5 mM dithiotherotol (DTT) is added to the polymerase buffer.
# T1 sequence (P08546 whole entry): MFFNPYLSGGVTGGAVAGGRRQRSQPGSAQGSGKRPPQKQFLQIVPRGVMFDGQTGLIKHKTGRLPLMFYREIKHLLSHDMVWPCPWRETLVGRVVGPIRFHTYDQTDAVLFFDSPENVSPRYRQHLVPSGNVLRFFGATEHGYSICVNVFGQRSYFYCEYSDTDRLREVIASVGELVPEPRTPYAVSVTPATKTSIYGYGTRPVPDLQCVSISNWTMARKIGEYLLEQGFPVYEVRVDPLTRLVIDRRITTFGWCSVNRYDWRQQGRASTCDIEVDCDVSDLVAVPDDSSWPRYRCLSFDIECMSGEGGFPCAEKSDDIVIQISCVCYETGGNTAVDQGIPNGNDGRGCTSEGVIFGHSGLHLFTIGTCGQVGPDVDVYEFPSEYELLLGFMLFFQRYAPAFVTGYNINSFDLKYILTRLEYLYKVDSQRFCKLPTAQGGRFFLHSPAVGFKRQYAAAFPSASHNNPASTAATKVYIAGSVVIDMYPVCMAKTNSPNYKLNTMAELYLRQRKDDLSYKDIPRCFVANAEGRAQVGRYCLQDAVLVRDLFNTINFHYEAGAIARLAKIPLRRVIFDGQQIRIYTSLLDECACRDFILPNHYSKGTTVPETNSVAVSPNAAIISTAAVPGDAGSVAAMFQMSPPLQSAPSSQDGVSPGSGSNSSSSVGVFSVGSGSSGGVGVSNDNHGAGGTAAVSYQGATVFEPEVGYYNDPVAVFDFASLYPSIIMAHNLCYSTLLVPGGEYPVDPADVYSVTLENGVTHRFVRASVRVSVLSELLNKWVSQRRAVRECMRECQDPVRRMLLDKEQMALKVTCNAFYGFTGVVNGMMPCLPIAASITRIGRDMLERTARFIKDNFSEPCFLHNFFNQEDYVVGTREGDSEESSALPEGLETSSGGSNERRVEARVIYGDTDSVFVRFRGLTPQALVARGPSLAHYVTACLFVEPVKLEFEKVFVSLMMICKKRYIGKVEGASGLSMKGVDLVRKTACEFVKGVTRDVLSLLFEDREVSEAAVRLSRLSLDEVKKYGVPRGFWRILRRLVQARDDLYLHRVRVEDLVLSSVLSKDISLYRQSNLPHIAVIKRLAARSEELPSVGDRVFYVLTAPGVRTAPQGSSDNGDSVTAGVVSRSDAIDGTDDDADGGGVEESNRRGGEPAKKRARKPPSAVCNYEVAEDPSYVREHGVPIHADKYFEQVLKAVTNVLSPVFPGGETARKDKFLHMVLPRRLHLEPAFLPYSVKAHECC
SMILES,IC50 (HCMV polymerase) [nM],melting point [°C]
"CN(Cc1cc2c3c(c1)c(=O)c(C(=O)NCc1ccc(Cl)cc1)cn3CC(=O)N2C)CC(O)c1ccco1 (racemic) [Example 5, rac N-(4-chlorobenzyl)-9-{([2-(2-furyl)-2-hydroxyethyl](methyl)amino)methyl}-1-methyl-2,7-dioxo-2,3-dihydro-1H,7H-pyrido[1,2,3-de]quinoxaline-6-carboxamide]",240,153 to 155
"CN(Cc1cc2c3c(c1)c(=O)c(C(=O)NCc1ccc(Cl)cc1)cn3CC(=O)N2CCO)CC(O)c1cc2ccccc2o1 (racemic) [Example 26, rac 9-{([2-(1-benzofuran-2-yl)-2-hydroxyethyl](methyl)amino)methyl}-N-(4-chlorobenzyl)-1-(2-hydroxyethyl)-2,7-dioxo-2,3-dihydro-1H,7H-pyrido[1,2,3-de]quinoxaline-6-carboxamide]",880,195 to 197
"Cc1cccc(C(O)CN(C)Cc2cc3c4c(c2)c(=O)c(C(=O)NCc2ccc(Cl)cc2)cn4CC(=O)N3C)n1 (racemic) [Example 8, rac N-(4-chlorobenzyl)-9-{([2-hydroxy-2-(6-methylpyridin-2-yl)ethyl](methyl)amino)methyl}-1-methyl-2,7-dioxo-2,3-dihydro-1H,7H-pyrido [1,2,3-de]quinoxaline-6-carboxamide]",1100,156 to 158
"Cc1cc(C(O)CN(C)Cc2cc3c4c(c2)c(=O)c(C(=O)NCc2ccc(Cl)cc2)cn4CC(=O)N3C)c(C)o1 (racemic) [Example 7, rac N-(4-chlorobenzyl)-9-{([2-(2,5-dimethyl-3-furyl)-2-hydroxyethyl](methyl)amino)methyl}-1-methyl-2,7-dioxo-2,3-dihydro-1H,7H-pyrido[1,2,3-de]quinoxaline-6-carboxamide]",250,157 to 160
"CN(Cc1cc2c3c(c1)c(=O)c(C(=O)NCc1ccc(Cl)cc1)cn3CC(=O)N2C)C[C@H](O)c1cc2ccccc2o1 [Example 35, 9-{[[(2S)-2-(1-benzofuran-2-yl)-2-hydroxyethyl](methyl)amino]methyl}-N-(4-chlorobenzyl)-1-methyl-2,7-dioxo-2,3-dihydro-1H,7H-pyrido[1,2,3-de]quinoxaline-6-carboxamide]",180,–
"CN(Cc1cc2c3c(c1)c(=O)c(C(=O)NCc1ccc(F)cc1)cn3CC(=O)N2C)C[C@@H](O)c1ccccn1 [Example 24, N-(4-fluorobenzyl)-9-{[[(2R)-2-hydroxy-2-pyridin-2-ylethyl](methyl)amino]methyl}-1-methyl-2,7-dioxo-2,3-dihydro-1H,7H-pyrido[1,2,3-de]quinoxaline-6-carboxamide]",1870,121 to 123
"COc1cccc(C(O)CN(C)Cc2cc3c4c(c2)c(=O)c(C(=O)NCc2ccc(Cl)cc2)cn4CC(=O)N3C)c1 (racemic) [Example 18, rac N-(4-chlorobenzyl)-9-{([2-hydroxy-2-(3-methoxyphenyl)ethyl](methyl)amino)methyl}-1-methyl-2,7-dioxo-2,3-dihydro-1H,7H-pyrido[1,2,3-de]quinoxaline-6-carboxamide]",180,154 to 156
CN(Cc1cc2c3c(c1)c(=O)c(C(=O)NCc1ccc(F)cc1)cn3CC(=O)N2C)C[C@@H](O)c1cccnc1 [Example 25],930,108 to 110
"CN(Cc1cc2c3c(c1)c(=O)c(C(=O)NCc1ccc(Cl)cc1)cn3CC(=O)N2C)C[C@@H](O)c1ccsc1 [Example 14, N-(4-chlorobenzyl)-9-{[[(2S)-2-hydroxy-2-thien-3-ylethyl](methyl)amino]methyl}-1-methyl-2,7-dioxo-2,3-dihydro-1H,7H-pyrido[1,2,3-de]quinoxaline-6-carboxamide]",190,137 to 139
"CN(Cc1cc2c3c(c1)c(=O)c(C(=O)NCc1ccc(F)cc1)cn3CC(=O)N2C)C[C@@H](O)c1ccco1 [Example 23, N-(4-fluorobenzyl)-9-{[[(2R)-2-(2-furyl)-2-hydroxyethyl](methyl)amino]methyl}-1-methyl-2,7-dioxo-2,3-dihydro-1H,7H-pyrido[1,2,3-de]quinoxaline-6-carboxamide]",420,150 to 152
"CN(Cc1cc2c3c(c1)c(=O)c(C(=O)NCc1ccc(F)cc1)cn3CC(=O)N2C)C[C@@H](O)c1ccsc1 [Example 28, N-(4-fluorobenzyl)-9-{[[(2S)-2-hydroxy-2-thien-3-ylethyl](methyl)amino]methyl}-1-methyl-2,7-dioxo-2,3-dihydro-1H,7H-pyrido[1,2,3-de]quinoxaline-6-carboxamide]",690,150 to 152
"CN(Cc1cc2c3c(c1)c(=O)c(C(=O)NCc1ccc(Cl)cc1)cn3CC(=O)N2C)CC(O)Cc1ccccc1 (racemic) [Example 17, rac N-(4-chlorobenzyl)-9-{[(2-hydroxy-3-phenylpropyl)(methyl)amino]methyl}-1-methyl-2,7-dioxo-2,3-dihydro-1H,7H-pyrido [1,2,3-de]quinoxaline-6-carboxamide]",870,121 to 127
"COc1cc(C(O)CN(C)Cc2cc3c4c(c2)c(=O)c(C(=O)NCc2ccc(Cl)cc2)cn4CC(=O)N3C)ccc1O (racemic) [Example 10, rac N-(4-chlorobenzyl)-9-{([2-hydroxy-2-(4-hydroxy-3-methoxyphenyl)ethyl](methyl)amino)methyl}-1-methyl-2,7-dioxo-2,3-dihydro-1H,7H-pyrido[1,2,3-de]quinoxaline-6-carboxamide]",240,133 to 136
"CN(Cc1cc2c3c(c1)c(=O)c(C(=O)NCc1ccc(F)cc1)cn3CC(=O)N2C)C[C@@H](O)c1cc2ccccc2o1 [Example 36, 9-{[[(2R)-2-(1-benzofuran-2-yl)-2-hydroxyethyl](methyl)amino]methyl}-N-(4-fluorobenzyl)-1-methyl-2,7-dioxo-2,3-dihydro-1H,7H-pyrido[1,2,3-de]quinoxaline-6-carboxamide]",< 30,94 to 96
"CN(Cc1cc2c3c(c1)c(=O)c(C(=O)NCc1ccc(F)cc1)cn3CC(=O)N2C)C[C@@H](O)c1nccs1 [Example 27, N-(4-fluorobenzyl)-9-{[[(2R)-2-hydroxy-2-(1,3-thiazol-2-yl)ethyl](methyl)amino]methyl}-1-methyl-2,7-dioxo-2,3-dihydro-1H,7H-pyrido[1,2,3-de]quinoxaline-6-carboxamide]",2080,156 to 158
"CN(Cc1cc2c3c(c1)c(=O)c(C(=O)NCc1ccc(F)cc1)cn3CC(=O)N2C)C[C@@H](O)c1ccccc1 [Example 29, N-(4-fluorobenzyl)-9-{[[(2S)-2-hydroxy-2-phenylethyl](methyl)amino]methyl}-1-methyl-2,7-dioxo-2,3-dihydro-1H,7H-pyrido[1,2,3-de]quinoxaline-6-carboxamide]",810,150 to 152
"CN(Cc1cc2c3c(c1)c(=O)c(C(=O)NCc1ccc(Cl)cc1)cn3CC(=O)N2C)CC(O)c1ccccc1 (stereo not shown) [Example 1, N-(4-chlorobenzyl)-9-{[(2-hydroxy-2-phenylethyl) (methyl)amino]methyl}-1-methyl-2,7-dioxo-2,3-dihydro-1H,7H-pyrido[1,2,3-de]quinoxaline-6-carboxamide]",220,–
"CN(Cc1cc2c3c(c1)c(=O)c(C(=O)NCc1ccc(Cl)cc1)cn3CC(=O)N2C)C[C@@H](O)c1ccccn1 [Example 9, N-(4-chlorobenzyl)-9-{[[(2R)-2-hydroxy-2-pyridin-2-ylethyl](methyl)amino]methyl}-1-methyl-2,7-dioxo-2,3-dihydro-1H,7H-pyrido[1,2,3-de]quinoxaline-6-carboxamide]",300,–
"CN(Cc1cc2c3c(c1)c(=O)c(C(=O)NCc1ccc(Cl)cc1)cn3CC(=O)N2C)C[C@@H](O)c1cc2ccccc2o1 [Example 34, 9-{[[(2R)-2-(1-benzofuran-2-yl)-2-hydroxyethyl](methyl)amino]methyl)-N-(4-chlorobenzyl)-1-methyl-2,7-dioxo-2,3-dihydro-1H,7H-pyrido[1,2,3-de]quinoxaline-6-carboxamide]",4,–
